{"source": "BindingDB's records for doi:10.1016/j.bmcl.2008.01.016", "about": "(Merck Research Laboratories, 2008)", "test": "Antagonist activity at human CCR2 assessed as inhibition of MCP1-induced monocyte chemotaxis"}
{"molecule": "C[C@H]1CN([C@@H]2CC[C@@]3(CCO[C@H]3OCc3cc(F)cc(C(F)(F)F)c3)C2)CC[C@@]12C=Cc1ccccc12", "values": [{"measurement": "IC50", "value": 2.5, "unit": "nM"}]}
